Measured values reported in US20220324835A1 (Nurix Therapeutics, Inc., priority 2018, published 2022).

Tests used:
[1] = tested on: T-cell; experiment: CD25 cell surface staining on T-cells co-stimulated with anti-CD3 and anti-CD28 antibody (Biological Example 2); type: cell-based, human; conditions: Homo sapiens, T-cell, fold change over baseline, primary human total T-cells, read-out: CD25 staining Anti-CD3/Anti-CD28 stimulation; for fold induction at 0.3 µM: 0.3 μM Cbl-b inhibitor; for fold induction at 1 µM: 1 μM Cbl-b inhibitor; for fold induction at 4 µM: 4 μM Cbl-b inhibitor
Procedure, shortened: (§1)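 No assay protocol given; T-cells stimulated with anti-CD3 alone or anti-CD3 plus anti-CD28, with or without Cbl-b inhibitor. Activation read as IL-2 secretion or CD25 surface staining, expressed as fold over baseline from uninhibited cells […].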

[2] = target: T1, Cbl-b (Homo sapiens, UniProt Q13191); experiment: Cbl-b inhibition assay (Cbl-b activity assay, FRET, Biological Example 1; 100 mM NaCl, 60 nM Src kinase); type: biochemical; conditions: upper bound stated in text lists; read-out: IC50 values in the Cbl-b inhibition assay of Biological Example 1
T1 sequence (Q13191 36-427): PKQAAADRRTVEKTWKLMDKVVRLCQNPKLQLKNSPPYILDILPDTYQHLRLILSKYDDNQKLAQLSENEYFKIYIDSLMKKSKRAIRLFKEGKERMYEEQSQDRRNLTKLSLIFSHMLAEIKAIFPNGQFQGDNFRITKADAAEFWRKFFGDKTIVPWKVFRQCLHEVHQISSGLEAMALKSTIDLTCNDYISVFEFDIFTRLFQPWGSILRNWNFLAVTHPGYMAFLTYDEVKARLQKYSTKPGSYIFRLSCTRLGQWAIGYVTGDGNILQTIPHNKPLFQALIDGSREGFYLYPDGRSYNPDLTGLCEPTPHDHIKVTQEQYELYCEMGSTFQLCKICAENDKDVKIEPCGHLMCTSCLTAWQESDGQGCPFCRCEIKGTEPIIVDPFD
Procedure, shortened: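 Here, the E2 UbcH5B, irreversibly linked to Bodipy-fluorescein ubiquitin, binds Cbl-b once Src kinase phosphorylates it; Cbl-b carries an N-terminal biotinylated Avi-tag captured by streptavidin-terbium. An absent FRET signal indicates inhibition.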

[3] = tested on: T-cell; experiment: IL-2 secretion from T-cells co-stimulated with anti-CD3 and anti-CD28 antibody (Biological Example 2); type: cell-based, human; conditions: Homo sapiens, T-cell, fold change over baseline, primary human total T-cells, read-out: IL-2 secretion Anti-CD3/Anti-CD28 stimulation; for fold induction at 0.3 µM: 0.3 μM Cbl-b inhibitor; for fold induction at 1 µM: 1 μM Cbl-b inhibitor; for fold induction at 4 µM: 4 μM Cbl-b inhibitor
Procedure, shortened: as §1

[4] = target: T1, Cbl-b; experiment: Cbl-b activity assay (Cbl-b inhibition assay), TR-FRET of Cbl-b interaction with UbcH5B-Ub; type: biochemical; conditions: assay buffer with 100 mM NaCl, 60 nM Src kinase; read-out: Cbl-b activity IC50
Procedure, shortened: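 TR-FRET readout of Cbl-b binding to Bodipy-fluorescein N-terminally labeled Ub conjugated to UbcH5B C85K, measured with compound present. After compound incubation, 60 nM Src kinase with 1 mM ATP and 5 mM MgCl2 (final) was added for 1.5 h, then a further 1 h incubation; asterisked values used 50 mM NaCl buffer and 30 nM Src.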

[5] = tested on: T-cell; experiment: IL-2 secretion from T-cells stimulated with anti-CD3 antibody alone (Biological Example 2); type: cell-based, human; conditions: T-cell, fold change over baseline, primary human total T-cells, read-out: IL-2 secretion Anti-CD3 stimulation; for fold induction at 1 µM: 1 μM Cbl-b inhibitor; for fold induction at 8 µM: 8 μM Cbl-b inhibitor

## Cc1cnnn1C[C@@H](C)c1cccc(NC(=O)c2cccc(C(F)(F)F)n2)c1 [Compound 312a, (S)-N-(3-(1-(5-methyl-1H-1,2,3-triazol-1-yl)propan-2-yl)phenyl)-6-(trifluoromethyl)picolinamide]
[1]
  fold induction at 0.3 µM: < 1
  fold induction at 1 µM: 1.01 to 1.3
  fold induction at 4 µM: 1.01 to 1.3
[2]
  IC50: ≤ 0.3 µM
[3]
  fold induction at 0.3 µM: 1.01 to 2.5
  fold induction at 1 µM: 1.01 to 2.5
  fold induction at 4 µM: 2.51 to 5
[4]
  IC50: 0.1 to 0.3 µM
[5]
  fold induction at 1 µM: 0.051 to 0.1
  fold induction at 8 µM: 0.151 to 0.2

## C[C@H](Cc1nncn1C)c1cccc(NC(=O)c2n[nH]c3c2CCC3)c1 [Compound 313, (R)-N-(3-(1-(4-Methyl-4H-1,2,4-triazol-3-yl)propan-2-yl)phenyl)-1,4,5,6-tetrahydrocyclopenta[c]pyrazole-3-carboxamide]
[1]
  fold induction at 0.3 µM: 1.01 to 1.3
  fold induction at 1 µM: 1.01 to 1.3
  fold induction at 4 µM: 1.01 to 1.3
[2]
  IC50: ≤ 0.3 µM
[3]
  fold induction at 0.3 µM: 1.01 to 2.5
  fold induction at 1 µM: 1.01 to 2.5
  fold induction at 4 µM: 2.51 to 5
[4]
  IC50: 0.1 to 0.3 µM
[5]
  fold induction at 1 µM: 0.101 to 0.15
  fold induction at 8 µM: 0.151 to 0.2

## C[C@H](Cc1nncn1C)c1cccc(NC(=O)c2nc3c(C4CC4)cccc3[nH]2)c1 [Compound 319, 4-cyclopropyl-N-[3-[(1R)-1-methyl-2-(4-methyl-1,2,4-triazol-3-yl)ethyl]phenyl]-1H-benzimidazole-2-carboxamide]
[1]
  fold induction at 0.3 µM: 1.01 to 1.3
  fold induction at 1 µM: 1.01 to 1.3
  fold induction at 4 µM: 1.01 to 1.3
[2]
  IC50: ≤ 0.3 µM
[3]
  fold induction at 0.3 µM: 1.01 to 2.5
  fold induction at 1 µM: 1.01 to 2.5
  fold induction at 4 µM: 2.51 to 5
[4]
  IC50: 0.1 to 0.3 µM
[5]
  fold induction at 1 µM: 0.051 to 0.1
  fold induction at 8 µM: > 0.201

## C[C@H](Cc1nncn1C)c1cccc(NC(=O)c2cc(C(C)(C)O)cc(C(F)(F)F)n2)c1 [Compound 320, 4-(2-hydroxypropan-2-yl)-N-[3-[(2R)-1-(4-methyl-4H-1,2,4-triazol-3-yl)propan-2-yl]phenyl]-6-(trifluoromethyl)pyridine-2-carboxamide]
[1]
  fold induction at 0.3 µM: 1.01 to 1.3
  fold induction at 1 µM: 1.01 to 1.3
  fold induction at 4 µM: 1.01 to 1.3
[2]
  IC50: ≤ 0.3 µM
[3]
  fold induction at 0.3 µM: 1.01 to 2.5
  fold induction at 1 µM: 2.51 to 5
  fold induction at 4 µM: 5 to 7.5
[4]
  IC50: 0.1 to 0.3 µM
[5]
  fold induction at 1 µM: 0.101 to 0.15
  fold induction at 8 µM: > 0.201

## C[C@H](Cc1nncn1C)c1cccc(NC(=O)c2cccc(C(C)(C)C)n2)c1 [Compound 321, (R)-6-(Tert-butyl)-N-(3-(1-(4-methyl-4H-1,2,4-triazol-3-yl)propan-2-yl)phenyl)picolinamide]
[1]
  fold induction at 0.3 µM: 1.01 to 1.3
  fold induction at 1 µM: 1.01 to 1.3
  fold induction at 4 µM: 1.01 to 1.3
[2]
  IC50: ≤ 0.1 µM
[3]
  fold induction at 0.3 µM: 1.01 to 2.5
  fold induction at 1 µM: 2.51 to 5
  fold induction at 4 µM: 2.51 to 5
[4]
  IC50: < 0.1 µM
[5]
  fold induction at 1 µM: 0.051 to 0.1
  fold induction at 8 µM: > 0.201

## CC1CCc2c1n[nH]c2C(=O)Nc1cccc([C@H](C)Cc2nncn2C)c1 (stereo partly drawn) [Compound 323, 6-Methyl-N-(3-((R)-1-(4-methyl-4H-1,2,4-triazol-3-yl)propan-2-yl)phenyl)-2,4,5,6-tetrahydrocyclopenta[c]pyrazole-3-carboxamide]
[1]
  fold induction at 0.3 µM: < 1
  fold induction at 1 µM: < 1
  fold induction at 4 µM: 1.01 to 1.3
[2]
  IC50: ≤ 0.3 µM
[3]
  fold induction at 0.3 µM: 1.01 to 2.5
  fold induction at 1 µM: 2.51 to 5
  fold induction at 4 µM: 5 to 7.5
[4]
  IC50: 0.1 to 0.3 µM
[5]
  fold induction at 1 µM: 0.101 to 0.15
  fold induction at 8 µM: > 0.201

## Cc1cc(C(=O)Nc2cccc([C@@H](C)Cc3nncn3C)c2)nc(C2CC2)n1 [Compound 325, (S)-2-Cyclopropyl-6-methyl-N-(3-(1-(4-methyl-4H-1,2,4-triazol-3-yl)propan-2-yl)phenyl)pyrimidine-4-carboxamide]
[1]
  fold induction at 0.3 µM: 1.01 to 1.3
  fold induction at 1 µM: 1.01 to 1.3
  fold induction at 4 µM: 1.01 to 1.3
[2]
  IC50: ≤ 0.3 µM
[3]
  fold induction at 0.3 µM: 1.01 to 2.5
  fold induction at 1 µM: 1.01 to 2.5
  fold induction at 4 µM: 2.51 to 5
[4]
  IC50: 0.1 to 0.3 µM
[5]
  fold induction at 1 µM: 0.051 to 0.1
  fold induction at 8 µM: 0.101 to 0.15
